# Test results reported in patent publication US20260185169A1, “MOLECULAR SIGNATURES TO PREDICT LONG-TERM LIVER FIBROSIS PROGRESSION” (THE BOARD OF REGENTS OF THE UNIVERSITY OF TEXAS SYSTEM, priority 2022, published 2026).
# Test system: FPS and molecular pathways
# Assay: Modulation of FPS and molecular pathways in hepatic transcriptome (RNA-Seq, CES/GSEI) in CENTAUR trial biopsies
# Assay type: in vivo, human
# Description: Archived formalin-fixed liver tissues from index biopsy were used for histological assessment in all patients (FIG. 1 and Table 1A-11) to confirm no to minimal fibrosis (METAVIR fibrosis stage F0 or F1). The PLS validation set 1 (and FPS derivation set 1) is a case-control series of 43 chronic hepatitis C patients from a prior cohort study consecutively diagnosed and followed at Johns Hopkins and Massachusetts General Hospital between 1998 and 2010. Twenty-five patients were co-infected with HIV and on anti-retroviral therapies. The patients were regularly followed up with ultrasound elastography at median interval of 1.1 (IQR: 0.6-2.0) years. Liver stiffness measurement >7.0 and >9.5 kPa were regarded as indication of F2 and F3 fibrosis, respectively. The PLS validation set 2 (and FPS derivation set 2) is a case-control series of 38 patients who consecutively underwent liver transplantation for HCV-related cirrhosis and protocol liver biopsies at year 1, 2, and 5 after transplantation (and additional biopsies as needed to evaluate graft rejection, which were excluded) at Baylor University between 2002 and 2007. Median number of biopsies was 8 (IQR: 6-9) per patient with median interval between serial biopsies of 8.6 (IQR: 0.3-12.6) months. […] The FPS derivation set 3 is a cross-sectional series of 31 NAFLD patients who underwent diagnostic liver biopsy at Hiroshima University between 2003 and 2015. The FPS derivation set 4 is a cross-sectional series of 309 NAFLD patients who underwent diagnostic liver biopsy (F0 or F1 fibrosis) at Massachusetts General Hospital between 2009 and 2016. […] The cases were defined as patients who had F-stage increase of one stage or more in the follow-up biopsy. The FPS validation set 2 includes 78 patients with fibrotic liver diseases from various etiologies, for which de-identified fresh liver tissues were available from standard-care hepatic resection for organotypic ex vivo tissue culture at University of Texas Southwestern and Mount Sinai. The FPS validation set 3 consists of NASH patients with F1-F3 fibrosis who underwent liver biopsy before and after 1-year treatment with cenicriviroc (n=9) or placebo (n=10) in the phase Ilb CENTAUR trial (NCT02217475). Decrease of one or more fibrosis stage was regarded as anti-fibrotic response. The serum surrogate FPS was assessed in archived de-identified serum samples from 79 patients with chronic liver diseases. The FPSec validation set is a cohort of 122 patients with compensated (Child-Pugh class A) cirrhosis patients with mixed etiologies enrolled at University of Michigan between 2004 and 2006 as reported in our previous study. Hepatic decompensation was defined as newly developed massive ascites, hepatic encephalopathy, bleeding from gastroesophageal varices, or liver transplantation. The study was approved by institutional review board at respective institutions with written informed consent or exemption for use of archived de-identified samples (protocol numbers: STU062018-058, STU072018-071, 2010P000220/PHS, HS13-00159).
# Total RNA was isolated from fixed tissue sections by using High Pure RNA Paraffin kit (Roche), and assessed for quality by qRT-PCR of RPL13A. Total RNA from the PCLS tissues was isolated using RNeasy kit (Qiagen). RNA samples (100-200 ng) were subjected to the PLS/FPS assay implemented in the nCounter platform (NanoString), and transcriptome profiling of the CENTAUR trial samples was performed by RNA-Seq (TrueSeq RNA Access, Illumina). Expression of BCL2, COL1A1, and ACTA2 genes was measured by qRT-PCR (Table 3). Serum protein profiling was performed by using xMAP assay (Luminex). […]
# [1] = Fibrosis improved, NASH patients, Hallmark set, Cell cycle, DNA damage, response
# [2] = Fibrosis improved, NASH patients, Hallmark set, Cellular signaling
# [3] = Fibrosis improved, NASH patients, Hallmark set, Inflammatory response, immunity
# [4] = Fibrosis improved, NASH patients, Hallmark set, Metabolism, biosynthesis
# [5] = Fibrosis improved, NASH patients, Hallmark set, Pathogenic response
# [6] = Fibrosis improved, NASH patients, Hallmark set, Sex hormone signaling
# [7] = Fibrosis improved, NASH patients, Hallmark set, Stress response
# [8] = Fibrosis improved, NASH patients, Immune cell signature (GSE65136)
# [9] = Fibrosis improved, NASH patients, Nuclear receptor signaling (curated pathway members)
# [10] = Fibrosis improved, NASH patients, PPAR agonists on mouse primary hepatocytes (GSE27948)
# [11] = Fibrosis not improved, NASH patients, Hallmark set, Cell cycle, DNA damage, response
smiles,measurement,setting,value
CCCCOCCOc1ccc(-c2ccc3c(c2)/C=C(/C(=O)Nc2ccc([S@@+]([O-])Cc4cncn4CCC)cc2)CCCN3CC(C)C)cc1 [Cenicriviroc],modulation of TGF-β and PDGFRB pathways,1-year cenicriviroc treatment,unchanged
same,proportion of patients with substantial CES reduction (FPS response),"CENTAUR trial, 1-year treatment, paired pre/post biopsies",22%
same,"NES, DNA repair gene set",[1],1.44
same,"NES, G2M checkpoint gene set",[1],−1.33
same,"NES, Mitotic spindle gene set",[1],−1.61
same,"NES, Apoptosis gene set","Fibrosis improved, NASH patients, Hallmark set, Cell death",1.32
same,"NES, E2F targets gene set",[2],−1.36
same,"NES, Hedgehog signaling gene set",[2],−0.65
same,"NES, KRAS signaling gene set",[2],1.31
same,"NES, Myc targets v1 gene set",[2],1.56
same,"NES, Myc targets v2 gene set",[2],1.26
same,"NES, Notch signaling gene set",[2],1.00
same,"NES, PI3K/AKT/mTOR signaling gene set",[2],0.91
same,"NES, TGFβ signaling gene set",[2],0.81
same,"NES, TNFα signaling via NF-κB gene set",[2],0.96
same,"NES, Wnt/β-catenin signaling gene set",[2],−1.07
same,"NES, mTORC1 signaling gene set",[2],1.71
same,"NES, p53 pathway gene set",[2],1.00
same,"NES, Allograft rejection gene set",[3],1.83
same,"NES, IL2 STAT5 signaling gene set",[3],0.89
same,"NES, IL6 JAK STAT3 signaling gene set",[3],0.95
same,"NES, Inflammatory response gene set",[3],1.38
same,"NES, Interferon-α response gene set",[3],2.12
same,"NES, Interferon-γ response gene set",[3],2.07
same,"NES, Adipogenesis gene set",[4],1.60
same,"NES, Bile acid metabolism gene set",[4],1.62
same,"NES, Cholesterol homeostasis gene set",[4],1.19
same,"NES, Coagulation gene set",[4],1.57
same,"NES, Complement gene set",[4],2.07
same,"NES, Fatty acid metabolism gene set",[4],2.22
same,"NES, Glycolysis gene set",[4],1.10
same,"NES, Heme metabolism gene set",[4],−0.98
same,"NES, Oxidative phosphorylation gene set",[4],2.49
same,"NES, Peroxisome gene set",[4],1.49
same,"NES, Protein secretion gene set",[4],1.57
same,"NES, Xenobiotic metabolism gene set",[4],1.66
same,"NES, Angiogenesis gene set",[5],1.47
same,"NES, Epithelial mesenchymal transition gene set",[5],1.41
same,"NES, Androgen response gene set",[6],1.52
same,"NES, Estrogen response early gene set",[6],−0.79
same,"NES, Estrogen response late gene set",[6],1.12
same,"NES, Hypoxia gene set",[7],0.97
same,"NES, Myogenesis gene set",[7],−0.95
same,"NES, Reactive oxygen species gene set",[7],1.07
same,"NES, UV response up gene set",[7],1.12
same,"NES, Unfolded protein response gene set",[7],1.34
same,"NES, B cell (naïve) gene set",[8],−0.52
same,"NES, CD4 T cell (naïve) gene set",[8],−0.57
same,"NES, CD8 T cell gene set",[8],1.13
same,"NES, DC (activate) gene set",[8],1.35
same,"NES, Gamma delta T cell gene set",[8],1.09
same,"NES, Macrophage (M1) gene set",[8],1.42
same,"NES, Macrophage (M2) gene set",[8],2.66
same,"NES, Mast cell (active) gene set",[8],1.22
same,"NES, Mast cell (rest) gene set",[8],−1.59
same,"NES, Memory B cell gene set",[8],−0.72
same,"NES, Memory T cell (rest) gene set",[8],0.80
same,"NES, Monocyte gene set",[8],2.81
same,"NES, NK cell (rest) gene set",[8],1.12
same,"NES, Neutrophil gene set",[8],1.87
same,"NES, Plasma cell gene set",[8],0.98
same,"NES, Regulatory T cell gene set",[8],−0.99
same,"NES, T follicular helper cell gene set",[8],1.22
same,"NES, FXR pathway gene set",[9],−1.06
same,"NES, PPAR signaling gene set (first listed)",[9],1.81
same,"NES, PPAR signaling gene set (second listed)",[9],1.70
same,"NES, PPARα pathway gene set (first listed)",[9],1.55
same,"NES, PPARα pathway gene set (second listed)",[9],0.92
same,"NES, RAR/RXR pathway gene set",[9],−1.50
same,"NES, RXR/VDR pathway gene set",[9],−1.10
same,"NES, GW7647 (PPARa agonist) gene set","Fibrosis improved, NASH patients, PPAR agonist on human primary hepatocytes (GSE53399)",1.84
same,"NES, GW501516 (PPARd agonist) gene set",[10],1.16
same,"NES, ROSIGLITAZONE (PPARg agonist) gene set",[10],1.36
same,"NES, WY14643 (PPARa agonist) gene set",[10],1.56
same,"NES, PDGFRB target gene signature","Fibrosis improved, NASH patients, iLINCS",−0.83
same,"NES, DNA repair gene set",[11],0.85
same,"NES, G2M checkpoint gene set",[11],2.00
